Source: PMC3870299, “Comparative genomics and functional analysis of rhamnose catabolic pathways and regulons in bacteria” (Frontiers in Microbiology, 2013)

Key:
[1] = target: T1, Ca_RhaEW (Chloroflexus aurantiacus, UniProt A9WGG0); assay: coupled NADH detection at […] nm and GC-MS of products; assay type: biochemical; settings: substrate made in situ from L-Rha by Ec_RhaA and Tm_RhaB, NAD+ 1.4 mM, Zn2+, pH 8, 30-70 C
T1 construct: gene Caur_2283; full-length, N-terminal His6 tag, expressed in E. coli, Ni-NTA purified
T1 sequence (A9WGG0 entry or part of it): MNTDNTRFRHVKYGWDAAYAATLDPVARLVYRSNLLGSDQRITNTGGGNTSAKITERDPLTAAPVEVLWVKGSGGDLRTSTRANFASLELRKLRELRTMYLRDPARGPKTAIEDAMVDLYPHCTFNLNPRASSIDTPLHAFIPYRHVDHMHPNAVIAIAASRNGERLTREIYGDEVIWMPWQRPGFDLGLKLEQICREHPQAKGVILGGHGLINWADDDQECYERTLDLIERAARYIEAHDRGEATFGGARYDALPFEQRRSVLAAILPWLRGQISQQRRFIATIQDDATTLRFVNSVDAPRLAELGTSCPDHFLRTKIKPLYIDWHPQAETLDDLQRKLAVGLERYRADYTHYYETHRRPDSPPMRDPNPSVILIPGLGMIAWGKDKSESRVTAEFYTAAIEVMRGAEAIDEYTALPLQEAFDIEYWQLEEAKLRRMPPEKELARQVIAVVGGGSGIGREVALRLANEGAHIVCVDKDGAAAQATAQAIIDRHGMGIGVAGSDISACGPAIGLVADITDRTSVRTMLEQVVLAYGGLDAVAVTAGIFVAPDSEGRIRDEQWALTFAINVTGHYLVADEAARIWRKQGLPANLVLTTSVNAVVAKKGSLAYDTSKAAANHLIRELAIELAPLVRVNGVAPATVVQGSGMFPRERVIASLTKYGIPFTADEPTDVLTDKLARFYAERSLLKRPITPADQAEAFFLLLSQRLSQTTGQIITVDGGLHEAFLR

[2] = target: T2, Bs_RhaEW (Bacillus subtilis, UniProt P40747); assay: coupled NADH detection at […] nm; assay type: biochemical; settings: substrate made in situ from L-Rha by Ec_RhaA and Tm_RhaB; NAD+ 2.5 mM; Zn2+; pH 7.5; 25 C
T2 construct: gene yuxG; full-length, N-terminal His6 tag, expressed in E. coli, Ni-NTA purified
T2 sequence (P40747 whole entry): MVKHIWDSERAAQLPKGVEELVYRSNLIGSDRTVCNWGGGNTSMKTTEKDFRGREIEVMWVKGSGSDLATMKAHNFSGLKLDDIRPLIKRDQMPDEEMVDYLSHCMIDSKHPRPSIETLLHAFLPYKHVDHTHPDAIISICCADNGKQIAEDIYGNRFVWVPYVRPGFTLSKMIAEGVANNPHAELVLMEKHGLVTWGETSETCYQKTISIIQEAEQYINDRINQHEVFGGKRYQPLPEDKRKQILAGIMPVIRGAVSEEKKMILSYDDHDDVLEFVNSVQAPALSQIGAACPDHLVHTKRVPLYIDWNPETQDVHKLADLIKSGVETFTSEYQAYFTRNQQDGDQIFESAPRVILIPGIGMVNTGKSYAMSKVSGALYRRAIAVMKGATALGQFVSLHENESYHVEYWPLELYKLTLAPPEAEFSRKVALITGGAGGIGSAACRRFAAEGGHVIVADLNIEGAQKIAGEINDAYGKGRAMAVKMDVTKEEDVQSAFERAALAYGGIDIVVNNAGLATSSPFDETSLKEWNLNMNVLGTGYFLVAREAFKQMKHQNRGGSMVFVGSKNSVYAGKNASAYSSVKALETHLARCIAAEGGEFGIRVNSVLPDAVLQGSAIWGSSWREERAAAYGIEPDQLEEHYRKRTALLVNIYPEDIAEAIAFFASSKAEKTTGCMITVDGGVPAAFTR

[3] = target: T3, RhaR (Chloroflexus aurantiacus, UniProt A9WGG7); assay: EMSA, loss of RhaR-DNA binding; settings: effector at 2 mM; RhaR 1 uM; pH 8.0; 50 C; L-rhamnulose made enzymatically from L-Rha by Ec_RhaA; Figure 5 legend prints L-rhamnose for this effect (apparent misprint)
T3 construct: gene Caur_2290

[4] = target: T4, St_RhaZ (Salmonella enterica, UniProt Q8ZKS2); assay: coupled NADH oxidation at […] nm; assay type: biochemical; settings: substrate made in situ by Ec_RhaA, Tm_RhaB and St_RhaD; NADH 0.25 mM; pH 7.5; 25 C; no dehydrogenase activity with NAD+
T4 construct: gene STM4044; full-length, N-terminal His6 tag, expressed in E. coli, Ni-NTA purified
T4 sequence (Q8ZKS2 1-382): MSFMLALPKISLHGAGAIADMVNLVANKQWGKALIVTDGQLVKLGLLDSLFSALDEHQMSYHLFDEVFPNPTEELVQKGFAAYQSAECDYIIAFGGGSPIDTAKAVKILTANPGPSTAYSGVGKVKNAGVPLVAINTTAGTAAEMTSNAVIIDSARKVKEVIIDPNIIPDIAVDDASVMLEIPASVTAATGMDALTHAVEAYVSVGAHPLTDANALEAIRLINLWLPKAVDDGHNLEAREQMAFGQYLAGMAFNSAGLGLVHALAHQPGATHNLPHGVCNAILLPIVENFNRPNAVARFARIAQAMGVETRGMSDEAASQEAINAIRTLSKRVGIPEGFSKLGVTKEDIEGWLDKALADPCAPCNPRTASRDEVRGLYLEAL
Text: St_RhaZ was active under these conditions

[5] = target: T5, RhaR (DeoR family) (Chloroflexus aurantiacus J-10-fl, UniProt A9WGG7 1-260); assay: EMSA; RhaR 0.25-1 uM, no effector; poly(dI-dC); EMSA: 50 mM Tris-HCl pH 8.0, 150 mM NaCl, 5 mM MgCl2, 1 mM DTT (printed DDT), 0.05% NP-40, 2.5% glycerol, 1 ug poly(dI-dC), 0.2 nM DNA, 20 ul, 25 min at 50 C; 1.5% agarose gel at room temperature; settings: protein: recombinant; tags: His6-Smt3 (SUMO) N-terminal tag, cleaved with Ulp1; blunt
T5 sequence: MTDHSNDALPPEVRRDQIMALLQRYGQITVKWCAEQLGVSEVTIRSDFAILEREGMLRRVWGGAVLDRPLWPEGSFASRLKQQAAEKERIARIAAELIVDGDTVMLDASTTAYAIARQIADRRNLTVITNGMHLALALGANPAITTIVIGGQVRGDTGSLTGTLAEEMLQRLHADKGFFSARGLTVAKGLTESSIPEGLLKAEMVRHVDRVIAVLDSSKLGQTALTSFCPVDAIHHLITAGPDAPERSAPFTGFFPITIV

C[C@H](O)[C@H](O)[C@@H](O)C(=O)COP(=O)(O)O [L-rhamnulose-1-P] was tested, and the “coupled NADH detection at 340 nm and GC-MS of products” value [1] was “Ca_RhaEW acts in vitro to convert L-rhamnulose-1-P to L-lactate and DHAP” and the “coupled NADH detection at 340 nm” value [2] was “The Bs_RhaEW protein showed weak, but reproducible activity”.

For C[C@@H]1OC(O)(CO)[C@H](O)[C@H]1O (stereo partly drawn) [L-rhamnulose], the “EMSA, loss of RhaR-DNA binding” value [3] was “L-rhamnulose abolished the specific DNA-binding ability of RhaR”.

NC(=O)C1=CN([C@@H]2O[C@H](COP(=O)(O)OP(=O)(O)OC[C@H]3O[C@@H](n4cnc5c(N)ncnc54)[C@H](O)[C@@H]3O)[C@@H](O)[C@H]2O)C=CC1 [NADH] was tested, and the “coupled NADH oxidation at 340 nm” value [4] was “with the exception of supplying NADH as the cofactor. St_RhaZ was active under these conditions”.

NC(=O)c1ccc[n+]([C@@H]2O[C@H](COP(=O)(O)OP(=O)(O)OC[C@H]3O[C@@H](n4cnc5c(N)ncnc54)[C@H](O)[C@@H]3O)[C@@H](O)[C@H]2O)c1 [NAD^+] was tested, and the “coupled NADH detection at 340 nm and GC-MS of products” value ([1]; no product without NAD+, no activity with NADH) was “exclusion of NAD^+ which is an essential cofactor of L-lactaldehyde dehydrogenase” and the “coupled NADH detection at 340 nm” value [2] was “the reduction of NAD^+ or oxidation of NADH was monitored”.

B1: rhaR upstream 48-bp fragment (38-bp RhaR operator) (dsDNA)
DNA 1: GGGGGTTCGTAAAATCTCGTAAGTACTTGACAAATCTTGAAAAGGGGG
DNA 2: CCCCCTTTTCAAGATTTGTCAAGTACTTACGAGATTTTACGAACCCCC
B1: binds [5].
